Test results: EP4745153A1, “GLP-1, GIP AND GCG RECEPTOR […] USE THEREOF” (Jiangsu Hengrui Pharmaceuticals Co., Ltd., priority 2023, dated 2025)
Where two headings read alike, the source gives them in different places. Starred links: 1 amine or outer side, 2 acyl side, 3 side chain; linkers in the order of their positions; H or OH if unused. Non-standard residues stand in square brackets, D forms with d. Residues, ends and D or L forms follow the SMILES beside them. Groups on a side chain read outwards from the residue. ξ: configuration not given here. *: point of attachment. C20 diacid = O=C(O)CCCCCCCCCCCCCCCCCCC(=O)*; γGlu = O=C(O)[C@H](CCC(=O)[*:2])N[*:1]; αMeK = C[C@](N)(CCCCN)C(=O)O; ξIva = CCC(C)(N)C(=O)O; AEEA = NCCOCCOCC(=O)O; Aib = CC(C)(N)C(=O)O

Tests used:
human GIPR = molecular target: T1, human GIPR (Homo sapiens, UniProt P48546); test: cAMP HTRF agonist activity assay in CHO-K1 cells expressing GIPR; format: cell-based; conditions: read-out: Activity against human GIPR (EC50 nM); note: 5% FBS, 0.1% Casein
T1 construct: expressed in transfected cells; host or cells: CHO-K1 clonal cell line
T1 sequence (P48546 22-466): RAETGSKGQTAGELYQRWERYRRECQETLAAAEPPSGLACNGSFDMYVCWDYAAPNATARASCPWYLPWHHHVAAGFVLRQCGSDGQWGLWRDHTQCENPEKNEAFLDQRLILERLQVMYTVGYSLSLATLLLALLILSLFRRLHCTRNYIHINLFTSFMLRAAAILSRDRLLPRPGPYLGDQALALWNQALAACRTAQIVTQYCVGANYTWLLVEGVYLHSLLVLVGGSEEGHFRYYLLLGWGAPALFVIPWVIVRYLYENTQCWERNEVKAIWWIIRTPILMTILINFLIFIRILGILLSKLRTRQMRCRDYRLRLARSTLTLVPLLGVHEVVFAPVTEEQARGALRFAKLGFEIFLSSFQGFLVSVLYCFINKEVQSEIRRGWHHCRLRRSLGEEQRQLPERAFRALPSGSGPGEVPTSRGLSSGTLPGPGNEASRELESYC
Outline: (§1)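 Clonal CHO-K1 lines, 5000 cells/well, exposed to polypeptides for 30 min at 37°C. Intracellular cAMP read by HTRF (cAMP-d2 conjugate plus anti-cAMP-Eu cryptate in lysis buffer). Relative EC50 from four-parameter nonlinear fit of percent maximum response against concentration.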

human GCGR = molecular target: T2, human GCGR (Homo sapiens, UniProt P47871); test: cAMP HTRF agonist activity assay in CHO-K1 cells expressing GCGR; format: cell-based; for Activity against human GCGR (EC50 nM): 5% FBS, 0.1% Casein
T2 construct: expressed in transfected cells; host or cells: CHO-K1 clonal cell line
Procedure: Functional activity was determined in CHO-K1 clonal cell lines expressing GIPR, GLP-1R, and GCGR. […] Each recipient cell (5000 cells/well) was added to an SV 96-well plate (Cisbio, 66PL96025) and incubated with the prepared polypeptide at 37°Cfor 30 min. The resulting increase in intracellular cAMP was quantitatively measured using the cAMP-GS dynamic HTRF assay kit (Cisbio, 62AM4PEJ). Briefly, the intracellular cAMP levels were determined by adding cAMP-d2 conjugate in cell lysis buffer, followed by the antibody anti-cAMP-Eu cryptate (also in cell lysis buffer).
Using the maximum response percentage vs. the added polypeptide concentration, the relative EC50 values were derived through nonlinear regression analysis and fitted to a four-parameter logarithmic equation. For specific data, refer to Tables 7-1 to 7-8 below. […]

[1] = Pharmacokinetics in mice after single intravenous injection; parameters: species or system C57 mice; conditions: mouse, in vivo, male C57 mice, single intravenous dose 200 nmol/kg, plasma; for clearance: read-out: CLp; for half-life: read-out: T1/2 (converted)
Outline: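 Male C57 mice (~25 g, 4-6 weeks, n=3) received a single i.v. dose of 200 nmol/kg in 1×PBS. Plasma collected from 5 min to 72 h was methanol-precipitated with verapamil internal standard and quantified by LC-MS (ESI positive, MRM); PK parameters were calculated by PKSolver.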

human GLP-1R = molecular target: T3, human GLP-1R (Homo sapiens, UniProt P43220); test: cAMP HTRF agonist activity assay in CHO-K1 cells expressing GLP-1R; format: cell-based
T3 construct: expressed in transfected cells; host or cells: CHO-K1 clonal cell line
Outline: as §1

[2] = read-out: Activity against human GCGR (EC50 nM)

T2 sequence (P47871 26-477): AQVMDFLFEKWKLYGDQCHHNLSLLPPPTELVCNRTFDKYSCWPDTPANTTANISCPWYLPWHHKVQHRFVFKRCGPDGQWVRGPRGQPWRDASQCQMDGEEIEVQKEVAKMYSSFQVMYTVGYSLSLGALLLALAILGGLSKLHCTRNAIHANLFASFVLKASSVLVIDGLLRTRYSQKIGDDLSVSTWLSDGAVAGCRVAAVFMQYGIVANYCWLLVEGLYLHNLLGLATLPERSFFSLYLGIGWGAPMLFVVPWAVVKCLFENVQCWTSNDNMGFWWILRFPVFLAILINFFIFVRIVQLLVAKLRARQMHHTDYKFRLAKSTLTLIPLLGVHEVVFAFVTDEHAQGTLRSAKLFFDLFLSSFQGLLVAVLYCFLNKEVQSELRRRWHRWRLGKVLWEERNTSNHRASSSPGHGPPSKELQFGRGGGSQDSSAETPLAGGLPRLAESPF
T3 sequence (P43220 24-463): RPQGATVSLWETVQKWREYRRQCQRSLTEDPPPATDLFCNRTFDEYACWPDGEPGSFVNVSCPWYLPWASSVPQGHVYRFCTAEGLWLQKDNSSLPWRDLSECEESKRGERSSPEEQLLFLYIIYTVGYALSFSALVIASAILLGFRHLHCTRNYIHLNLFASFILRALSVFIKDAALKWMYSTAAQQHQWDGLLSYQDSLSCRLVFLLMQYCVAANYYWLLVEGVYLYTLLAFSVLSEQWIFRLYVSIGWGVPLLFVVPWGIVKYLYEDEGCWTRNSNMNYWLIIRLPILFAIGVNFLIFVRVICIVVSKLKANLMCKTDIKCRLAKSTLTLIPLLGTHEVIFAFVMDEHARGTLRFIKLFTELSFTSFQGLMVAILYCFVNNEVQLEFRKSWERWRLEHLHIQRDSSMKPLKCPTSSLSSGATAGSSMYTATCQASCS

SMILES | EC50 (human GIPR) | EC50 (human GCGR; [2]) | EC50 (human GCGR) | AUC(0-inf) [1] | C0 [1] | clearance [1] | half-life [1] | EC50 (human GLP-1R)
CC(C)C[C@H](NC(=O)[C@H](CC(C)C)NC(=O)[C@H](Cc1c[nH]c2ccccc12)NC(=O)[C@H](CCC(=O)O)NC(=O)[C@@H](NC(=O)[C@H](Cc1ccccc1)NC(=O)[C@H](CCC(=O)O)NC(=O)[C@H](CCC(N)=O)NC(=O)[C@H](C)NC(=O)[C@H](C)NC(=O)[C@H](CCCCN)NC(=O)[C@H](CCCCNC(=O)COCCOCCNC(=O)COCCOCCNC(=O)CC[C@H](NC(=O)CCCCCCCCCCCCCCCCCCC(=O)O)C(=O)O)NC(=O)[C@H](CCC(=O)O)NC(=O)[C@H](CC(C)C)NC(=O)[C@H](CC(C)C)NC(=O)[C@](C)(CCCCN)NC(=O)[C@H](CO)NC(=O)[C@H](Cc1ccc(O)cc1)NC(=O)[C@H](CC(=O)O)NC(=O)[C@H](CO)NC(=O)[C@@H](NC(=O)[C@H](Cc1ccccc1)NC(=O)[C@@H](NC(=O)CNC(=O)[C@H](Cc1c[nH]cn1)NC(=O)C(C)(C)NC(=O)[C@@H](N)Cc1c[nH]cn1)[C@@H](C)O)[C@@H](C)O)C(C)C)C(=O)N[C@@H](C)C(=O)NCC(=O)NCC(=O)N1CCC[C@H]1C(=O)N[C@@H](CO)C(=O)N[C@@H](CO)C(=O)NCC(=O)N[C@@H](C)C(=O)N1CCC[C@H]1C(=O)N1CCC[C@H]1C(=O)N1CCC[C@H]1C(=O)N[C@@H](CO)C(N)=O [Compound 0112] (H-H[Aib]HGTFTSDYS[αMeK]LLEK([AEEA-AEEA-γGlu-C20 diacid])KAAQEFVEWLLAGGPSSGAPPPS-NH2) | 0.005 nM | 0.087 nM |  |  |  |  |  | 
CC[C@H](C)[C@H](NC(=O)[C@](C)(CCCCN)NC(=O)[C@H](CO)NC(=O)[C@H](Cc1ccc(O)cc1)NC(=O)[C@H](CC(=O)O)NC(=O)[C@H](CO)NC(=O)[C@@H](NC(=O)[C@H](Cc1ccccc1)NC(=O)[C@@H](NC(=O)CNC(=O)[C@H](Cc1c[nH]cn1)NC(=O)C(C)(C)NC(=O)[C@@H](N)Cc1c[nH]cn1)[C@@H](C)O)[C@@H](C)O)C(=O)N[C@@H](CC(C)C)C(=O)N[C@@H](CCC(=O)O)C(=O)N[C@@H](CCCCNC(=O)COCCOCCNC(=O)COCCOCCNC(=O)CC[C@H](NC(=O)CCCCCCCCCCCCCCCCCCC(=O)O)C(=O)O)C(=O)N[C@@H](CCC(N)=O)C(=O)N[C@@H](C)C(=O)N[C@@H](C)C(=O)NC(C)(CC)C(=O)N[C@@H](CCC(=O)O)C(=O)N[C@@H](Cc1ccccc1)C(=O)N[C@H](C(=O)N[C@@H](CCC(=O)O)C(=O)N[C@@H](Cc1c[nH]c2ccccc12)C(=O)N[C@@H](CC(C)C)C(=O)N[C@@H](CC(C)C)C(=O)N[C@@H](C)C(=O)NCC(=O)NCC(=O)N1CCC[C@H]1C(=O)N[C@@H](CO)C(=O)N[C@@H](CO)C(=O)NCC(=O)N[C@@H](C)C(=O)N1CCC[C@H]1C(=O)N1CCC[C@H]1C(=O)N1CCC[C@H]1C(=O)N[C@@H](CO)C(N)=O)C(C)C (some centres unmarked) [Compound 0130] (H-H[Aib]HGTFTSDYS[αMeK]ILEK([AEEA-AEEA-γGlu-C20 diacid])QAA[ξIva]EFVEWLLAGGPSSGAPPPS-NH2) |  |  | 0.03 nM |  |  |  |  | 
CC(C)C[C@H](NC(=O)[C@H](CC(C)C)NC(=O)[C@H](Cc1c[nH]c2ccccc12)NC(=O)[C@H](CCC(=O)O)NC(=O)[C@@H](NC(=O)[C@H](Cc1ccccc1)NC(=O)[C@H](CCC(=O)O)NC(=O)[C@H](CCC(N)=O)NC(=O)[C@H](C)NC(=O)[C@H](C)NC(=O)[C@H](CCCCN)NC(=O)[C@H](CCCCNC(=O)COCCOCCNC(=O)COCCOCCNC(=O)CC[C@H](NC(=O)CCCCCCCCCCCCCCCCCCC(=O)O)C(=O)O)NC(=O)[C@H](CCC(=O)O)NC(=O)[C@H](CC(C)C)NC(=O)[C@H](Cc1ccc(O)cc1)NC(=O)[C@](C)(CCCCN)NC(=O)[C@H](CO)NC(=O)[C@H](Cc1ccc(O)cc1)NC(=O)[C@H](CC(=O)O)NC(=O)[C@H](CO)NC(=O)[C@@H](NC(=O)[C@H](Cc1ccccc1)NC(=O)[C@@H](NC(=O)CNC(=O)[C@H](Cc1c[nH]cn1)NC(=O)C(C)(C)NC(=O)[C@@H](N)Cc1c[nH]cn1)[C@@H](C)O)[C@@H](C)O)C(C)C)C(=O)N[C@@H](C)C(=O)NCC(=O)NCC(=O)N1CCC[C@H]1C(=O)N[C@@H](CO)C(=O)N[C@@H](CO)C(=O)NCC(=O)N[C@@H](C)C(=O)N1CCC[C@H]1C(=O)N1CCC[C@H]1C(=O)N1CCC[C@H]1C(=O)N[C@@H](CO)C(N)=O [Compound 0104] (H-H[Aib]HGTFTSDYS[αMeK]YLEK([AEEA-AEEA-γGlu-C20 diacid])KAAQEFVEWLLAGGPSSGAPPPS-NH2) |  |  | 0.037 nM | 30.9 µM·h | 4.22 µM | 0.108 mL/min/kg | 11.5 h | 
CCC(C)(NC(=O)[C@H](C)NC(=O)[C@H](C)NC(=O)[C@H](CCCCN)NC(=O)[C@H](CCCCNC(=O)COCCOCCNC(=O)COCCOCCNC(=O)CC[C@H](NC(=O)CCCCCCCCCCCCCCCCCCC(=O)O)C(=O)O)NC(=O)[C@H](CCC(=O)O)NC(=O)[C@H](CC(C)C)NC(=O)[C@H](CC(C)C)NC(=O)[C@](C)(CCCCN)NC(=O)[C@H](CO)NC(=O)[C@H](Cc1ccc(O)cc1)NC(=O)[C@H](CC(=O)O)NC(=O)[C@H](CO)NC(=O)[C@@H](NC(=O)[C@H](Cc1ccccc1)NC(=O)[C@@H](NC(=O)CNC(=O)[C@H](CCC(N)=O)NC(=O)C(C)(C)NC(=O)[C@@H](N)Cc1ccc(O)cc1)[C@@H](C)O)[C@@H](C)O)C(=O)N[C@@H](CCC(=O)O)C(=O)N[C@@H](Cc1ccccc1)C(=O)N[C@H](C(=O)N[C@@H](CCC(=O)O)C(=O)N[C@@H](Cc1c[nH]c2ccccc12)C(=O)N[C@@H](CC(C)C)C(=O)N[C@@H](CC(C)C)C(=O)N[C@@H](C)C(=O)NCC(=O)NCC(=O)N1CCC[C@H]1C(=O)N[C@@H](CO)C(=O)N[C@@H](CO)C(=O)NCC(=O)N[C@@H](C)C(=O)N1CCC[C@H]1C(=O)N1CCC[C@H]1C(=O)N1CCC[C@H]1C(=O)N[C@@H](CO)C(N)=O)C(C)C (some centres unmarked) [Compound 0127] (H-Y[Aib]QGTFTSDYS[αMeK]LLEK([AEEA-AEEA-γGlu-C20 diacid])KAA[ξIva]EFVEWLLAGGPSSGAPPPS-NH2) |  |  | 0.037 nM |  |  |  |  | 
CC[C@H](C)[C@H](NC(=O)[C@H](CO)NC(=O)[C@H](Cc1ccc(O)cc1)NC(=O)[C@H](CC(=O)O)NC(=O)[C@H](CO)NC(=O)[C@@H](NC(=O)[C@H](Cc1ccccc1)NC(=O)[C@@H](NC(=O)CNC(=O)[C@H](Cc1c[nH]cn1)NC(=O)C(C)(C)NC(=O)[C@@H](N)Cc1c[nH]cn1)[C@@H](C)O)[C@@H](C)O)C(=O)N[C@@H](CC(C)C)C(=O)N[C@@H](CC(C)C)C(=O)N[C@@H](CCC(=O)O)C(=O)N[C@@H](CCCCNC(=O)COCCOCCNC(=O)COCCOCCNC(=O)CC[C@H](NC(=O)CCCCCCCCCCCCCCCCCCC(=O)O)C(=O)O)C(=O)N[C@@H](CCCCN)C(=O)N[C@@H](C)C(=O)N[C@@H](C)C(=O)N[C@@H](CCC(N)=O)C(=O)N[C@@H](CCC(=O)O)C(=O)N[C@@H](Cc1ccccc1)C(=O)N[C@H](C(=O)N[C@@H](CCC(=O)O)C(=O)N[C@@H](Cc1c[nH]c2ccccc12)C(=O)N[C@@H](CC(C)C)C(=O)N[C@@H](CC(C)C)C(=O)N[C@@H](C)C(=O)N[C@H](CCC(=O)O)C(=O)NCC(=O)N1CCC[C@H]1C(=O)N[C@@H](CO)C(=O)N[C@@H](CO)C(=O)NCC(=O)N[C@@H](C)C(=O)N1CCC[C@H]1C(=O)N1CCC[C@H]1C(=O)N1CCC[C@H]1C(=O)N[C@@H](CO)C(N)=O)C(C)C [Compound 0151] | 0.004 nM | 0.055 nM |  |  |  |  |  | 
CC[C@H](C)[C@H](NC(=O)[C@H](CO)NC(=O)[C@H](CC(C)C)NC(=O)[C@H](CC(=O)O)NC(=O)[C@H](CO)NC(=O)[C@@H](NC(=O)[C@H](Cc1ccccc1)NC(=O)[C@@H](NC(=O)CNC(=O)[C@H](Cc1c[nH]cn1)NC(=O)C(C)(C)NC(=O)[C@@H](N)Cc1c[nH]cn1)[C@@H](C)O)[C@@H](C)O)C(=O)N[C@@](C)(CC(C)C)C(=O)N[C@@H](CC(C)C)C(=O)N[C@@H](CCC(=O)O)C(=O)N[C@@H](CCCCNC(=O)COCCOCCNC(=O)COCCOCCNC(=O)CC[C@H](NC(=O)CCCCCCCCCCCCCCCCCCC(=O)O)C(=O)O)C(=O)N[C@@H](CCCCN)C(=O)N[C@@H](C)C(=O)N[C@@H](C)C(=O)NC(C)(CC)C(=O)N[C@@H](CCC(=O)O)C(=O)N[C@@H](Cc1ccccc1)C(=O)N[C@H](C(=O)N[C@@H](CCC(=O)O)C(=O)N[C@@H](Cc1c[nH]c2ccccc12)C(=O)N[C@@H](CC(C)C)C(=O)N[C@@H](CC(C)C)C(=O)N[C@@H](C)C(=O)NCC(=O)NCC(=O)N1CCC[C@H]1C(=O)N[C@@H](CO)C(=O)N[C@@H](CO)C(=O)NCC(=O)N[C@@H](C)C(=O)N1CCC[C@H]1C(=O)N1CCC[C@H]1C(=O)N1CCC[C@H]1C(=O)N[C@@H](CO)C(N)=O)C(C)C (some centres unmarked) [Compound 0138] |  |  | 0.055 nM | 18.5 µM·h | 3.28 µM | 0.181 mL/min/kg | 8.2 h | 0.019 nM
